Consider seven compounds from patent US7872004B2, “6-(heterocyclyl-substituted benzyl)-4-oxoquinoline compound and use thereof as HIV integrase inhibitor” (Japan Tobacco Inc., priority 2006, dated 2011).

The assay has as its target T1, HIV integrase (Human immunodeficiency virus type 1 group M subtype B, UniProt P12497, F1332H).
T1 construct: HIV integrase full length gene; made in house; host or cells: Escherichia coli BL21(DE3)
Description: Determination of enzyme (HIV integrase) inhibitory activity. The assay is classed as biochemical, HIV (Human Immunodeficiency Virus (type 1)). The following applies: recombinant integrase protein (F185H), strand transfer plate assay, absorbance at 450 nm.
For `CCO[C@H](C)[C@@H](CO)n1cc(C(=O)O)c(=O)c2cc(Cc3cc(N4CCOCC4)cc(Cl)c3F)c(OC)cc21` [Example 50, 6-[3-chloro-2-fluoro-5-(morpholin-4-yl)benzyl]-1-[(1R,2R)-2-ethoxy-1-(hydroxymethyl)propyl]-7-methoxy-4-oxo-1,4-dihydroquinoline-3-carboxylic acid], the half-inhibitory concentration (IC50) – broadly, the midpoint of a concentration-inhibition curve – is 10 to 100 nM.

On to `CCO[C@H](C)[C@@H](CO)n1cc(C(=O)O)c(=O)c2cc(Cc3cc(N4CCCC4=O)cc(Cl)c3F)c(CC)cc21` [Example 40, 6-[3-chloro-2-fluoro-5-(2-oxopyrrolidin-1-yl)benzyl]-1-[(1R,2R)-2-ethoxy-1-(hydroxymethyl)propyl]-7-ethyl-4-oxo-1,4-dihydroquinoline-3-carboxylic acid], for which the IC50 fell in the range of 10 to 100 nM. To `CCOC[C@@H](CO)n1cc(C(=O)O)c(=O)c2cc(Cc3cc(N4CCOCC4)cc(Cl)c3F)c(OC)cc21` [Example 19, 6-[3-chloro-2-fluoro-5-(morpholin-4-yl)benzyl]-1-((R)-1-ethoxymethyl-2-hydroxyethyl)-7-methoxy-4-oxo-1,4-dihydroquinoline-3-carboxylic acid] belongs less than 10 nM. As to `COc1cc2c(cc1Cc1cc(N3CCCC3=O)cc(Cl)c1F)c(=O)c(C(=O)O)cn2[C@H](CO)C(C)(C)C` [Example 45, 6-[3-chloro-2-fluoro-5-(2-oxopyrrolidin-1-yl)benzyl]-1-((S)-1-hydroxymethyl-2,2-dimethylpropyl)-7-methoxy-4-oxo-1,4-dihydroquinoline-3-carboxylic acid], the IC50 is less than 10 nM. To `CCc1cc2c(cc1Cc1cc(N3CCCC3=O)cc(Cl)c1F)c(=O)c(C(=O)O)cn2[C@H](CO)[C@@H](C)OC` [Example 41, 6-[3-chloro-2-fluoro-5-(2-oxopyrrolidin-1-yl)benzyl]-7-ethyl-1-((1R,2R)-1-hydroxymethyl-2-methoxypropyl)-4-oxo-1,4-dihydroquinoline-3-carboxylic acid] belongs 10 to 100 nM; to `CCOC[C@@H](CO)n1cc(C(=O)O)c(=O)c2cc(Cc3cc(N4CCCC4=O)cc(Cl)c3F)c(OC)cc21` [Example 39, 6-[3-chloro-2-fluoro-5-(2-oxopyrrolidin-1-yl)benzyl]-1-((R)-1-ethoxymethyl-2-hydroxyethyl)-7-methoxy-4-oxo-1,4-dihydroquinoline-3-carboxylic acid], less than 10 nM; to `CCc1cc2c(cc1Cc1cc(N3CCOCC3)cc(Cl)c1F)c(=O)c(C(=O)O)cn2[C@H](CO)[C@@H](C)OC` [Example 34, 6-[3-chloro-2-fluoro-5-(morpholin-4-yl)benzyl]-7-ethyl-1-((1R,2R)-1-hydroxymethyl-2-methoxypropyl)-4-oxo-1,4-dihydroquinoline-3-carboxylic acid], less than 10 nM.
